# From US9066866B2, “Direct cellular energy delivery system” (University of Louisville Research Foundation, Inc., priority 2002, dated 2015)
# Legend:
# amputated hind legs = experiment: Limb replantation after perfusion of amputated hind legs; assay type: in vivo, rats; conditions: rat
# Protocol: Hind legs were amputated from rats, and the major feed arteries for the severed limbs were cannulated for infusion of ATP-SUV, (1 mM ATP) solution. The limbs were perfused with ATP-SUV or control solutions (see Table 1) every 3 hours, or as deemed necessary by the change in tissue ATP levels. The arterial pressure of the limbs was monitored during infusion to decrease the chance of flow-induced injury, and to monitor the overall preservation of the severed limbs (higher perfusion pressures may indicate limb morbidity). Following the preservation period, the limbs were flushed with Ringers to remove traces of ATP-SUV. The limbs were then surgically reattached, and external indices of limb function after anastomoses were evaluated (limb color, evidence of microthrombi, coagulation, limb temperature). The animals prior to and following replantation received heparin to prevent hemostasis. In addition, animals were placed on antibiotic therapy to reduce infection. Control limbs were perfused with vehicle only, vehicle and ATP only, or vehicle and SUVs only.
# HUVEC = experiment: Vesicle absorption and release of 3H-ATP into HUVEC; assay type: cell-based, human
# Protocol: To determine if ATP is also introduced into cells like carboxyfluorescein, vesicle absorption and release of ATP into HUVEC was followed using the ^3H-ATP-containing vesicles of Example 2. The vesicles were incubated with HUVEC for 5, 10, 15, 30, 45, 60, 90, 120, or 240 minutes. The result shown in FIG. 1 is the partition coefficient of ATP inside the cells after 1 hour. […] When the cells were washed repeatedly there was a significant change in the radioactivity of the cells.
compound,measurement,setting,value
"Nc1ncnc2c1ncn2[C@@H]1O[C@H](COP(=O)(O)OP(=O)(O)OP(=O)(O)O)[C@@H](O)[C@H]1O [^3H-ATP only, adenosine-5′-triphosphate (ATP)]",Limb outcome,amputated hind legs,necrosis
same,change in radioactivity of the cells after repeated washes,HUVEC; 3H-ATP,complete loss of radioactivity
same,"partition coefficient of ATP inside the cells (percent incorporation, rank order)","HUVEC; after 1 hour, FIG. 1","then ^3H-ATP only, without vesicles"
same,mode of cell entry concluded,HUVEC; from wash and fusion data,does not enter cells
